From patent publication US9339458B2, “Use of vaginal insulin sensitizing agents” (ITF RESEARCH PHARMA, S.L.U., priority 2009, dated 2016)

Tests used:
[1] = tested on: non-insulin dependent model for polycystic ovary syndrome (PCOS) induced by dehydroepiandrosterone (DHEA) in rats; assay: Concentration of testosterone in plasma, DHEA-induced PCOS model in rats; type: in vivo, Sprague-Dawley rats
Protocol: (§1) The study objective was to assess the effect of metformin in a non-insulin dependent model for polycystic ovary syndrome (PCOS) induced by dehydroepiandrosterone (DHEA) in rats.
(§2) The formulations to be tested were: • Gels with Metformin at a concentration of 2 mg/mL (FT-147), 20 mg/mL (FT-148) and 200 mg/mL (FT-149). • Gel without Metformin (Placebo; FT-150).
(§3) Female 2-3 weeks-old Sprague-Dawley rats were used.
(§4) Four experimental groups with 8 animals each were used in the study: • Group A: Control=Placebo+DHEA • Group B: Dose 1 Trial Substance (0.016 mg/animal)+DHEA • Group C: Dose 2 Trial Substance (0.16 mg/animal)+DHEA • Group D: Dose 3 Trial Substance (1.6 mg/animal)+DHEA
Each animal's dose was calculated based on the concentration of each formulation and the administration volume: • Dose 1: formulation of 2 mg/mL with administration of 8 μl/animal=0.016 mg/animal • Dose 2: formulation of 20 mg/mL with administration of 8 μl/animal=0.16 mg/animal • Dose 3: formulation of 200 mg/mL with administration of 8 μl/animal=1.6 mg/animal […]
Plasma was obtained from each blood sample by centrifugation at 5000 g for 5 minutes, which was frozen for later assessment (quantitative determinations) of testosterone levels by rat-specific commercial immunoassay kits (EIA).
Testosterone concentrations in the plasma samples from all animals were determined at the end of the study (Day 15).

[2] = tested on: non-insulin dependent model for polycystic ovary syndrome (PCOS) induced by dehydroepiandrosterone (DHEA) in rats; assay: Histological assessment of ovaries (no. of atretic follicles), DHEA-induced PCOS model in rats; type: in vivo, Sprague-Dawley rats
Protocol: as §1, §2, §3, §4
Each animal's dose was calculated based on the concentration of each formulation and the administration volume: • Dose 1: formulation of 2 mg/mL with administration of 8 μl/animal=0.016 mg/animal • Dose 2: formulation of 20 mg/mL with administration of 8 μl/animal=0.16 mg/animal • Dose 3: formulation of 200 mg/mL with administration of 8 μl/animal=1.6 mg/animal
The trial substance (doses of 0.016, 0.16 and 1.6 mg/animal) and the control substance were administered intravaginally as an aqueous gel at a volume of 8 μl/animal.
The DHEA solution was prepared in a sesame seed oil prior to administration and was injected subcutaneously in a skin fold in the posterior thoracic area (dorsal) at a volume of 0.2 mL. […]

CN(C)C(=N)NC(=N)N [metformin, N,N-dimethylimidodicarbonimidic diamide]
Testosterone plasma levels versus control group ([1]; high dose, intravaginal): very significant reduction | Plasma levels of testosterone ([1]; vaginal administration): significantly decreases | Number of atretic follicles versus control group ([2]; intermediate dose, intravaginal): significant reduction | Number of atretic follicles in the polycystic ovaries ([2]; vaginal administration): a decrease
